This is an account of results in ChEMBL document CHEMBL4627285, “Multi-step parallel synthesis enabled optimization of benzofuran derivatives as pan-genotypic non-nucleoside inhibitors of HCV NS5B” (Bioorg Med Chem Lett, 2020).

A short description of data set [1]: Clearance in Wistar rat. It counts as ADME. Particulars: in vivo.
Data set [2] is described as follows: Volume of distribution in Wistar rat. The data set is classed as ADME. The following applies: in vivo.
A short description of data set [3]: Solubility of compound in FASSIF at pH 6.5. It counts as physicochemical.
The nature of data set [4]: MRT in Wistar rat. The data set is classed as ADME. The following applies: in vivo.
Data set [5] in a line: AUC in Wistar rat. It counts as ADME. The following applies: in vivo.

The structures appear in SMILES notation. Values after ≈ are worked out from the molar mass of the structure shown.

`CNC(=O)c1c(-c2ccc(F)cc2)oc2cc(N(C)S(C)(=O)=O)c(-c3ccc4nc(C)n(Cc5ccc(F)cc5)c(=O)c4c3)cc12` registered a clearance in data set [1] of 27.4 mL/min/kg. Further, in data set [2], the Vd came to 4.28 L/kg. Further, the solubility in data set [3] (FaSSIF, read-out: solubility) came out at 70 µM (≈ 45 µg/mL). In data set [4], this compound had an MRT of 2.84 h. In data set [5], this compound came in with an AUC of 1.06 µM·h.
`CNC(=O)c1c(-c2ccc(F)cc2)oc2cc(N(C)S(C)(=O)=O)c(-c3ccc4c(n3)-c3cc5c(F)cccc5n3CO4)cc12` [MK-8876]: the clearance in data set [1] was found to be 7.03 mL/min/kg. In data set [2], this compound showed a Vd of 5.79 L/kg. The solubility in data set [3] (simulated gi fluid) was 42 µM (≈ 25.8 µg/mL). The MRT in data set [4] was found to be 18.1 h. This compound returned an AUC in data set [5] of 3.92 µM·h.

A word on the clearance: it is the rate of elimination divided by the concentration. The term Vd denotes the apparent volume that relates the amount in the body to the concentration in plasma or blood. As a reminder, the solubility is the concentration that dissolves in the medium under given conditions. For orientation: MRT means a mean duration of stay, worked out from the concentration-time curve. For orientation: AUC means the area under the concentration-time curve, a measure of exposure.
